The values below are quoted from earlier work in paper PMC4008261, “Rewiring of regenerated axons by combining treadmill training with semaphorin3A inhibition” (Molecular Brain, 2014).

Structures are written as SMILES.

For one data set, the system named is semaphorin3A. On the set-up: method as in PMID 17099709. The settings on record: in vitro and in vivo; cited from earlier work.
For a further data set, the system named is SCT adult rats. On the set-up: method as in PMID 17099709. The conditions noted are these: adult rats after total spinal cord transection (SCT), osmotic mini-pump; cited from earlier work.

For `CC(=O)c1c(C)c(/C(O)=C2\COc3cc(O)c(O)c(C(=O)O)c3C2=O)cc2c(=O)c3c(C(=O)O)c(O)c(O)cc3oc12` [SM-216289, xanthofulvin], the “inhibition of semaphorin3A signaling” value in the data set with semaphorin3A is “selectively inhibits semaphorin3A signaling both in vitro and in vivo”. The “axonal regeneration and motor function recovery” value in the data set on SCT adult rats is “led to axonal regeneration and motor function recovery”.
